PubChem BioAssay AID1963971 (Molecular Pharmacology Branch, DTP, NCI, 2024)

Test system: 953936-095-R-J2-PDC spheroids with HUVEC/MSC, viability
Experiment: Anticancer human tumor 953936-095-R-J2-PDC patient-derived cervical squamous cell carcinoma cell line growth inhibition [PI3K]
Conditions: for IC50: curve of first compound; for viability, T/C: stronger effect = lower value
Procedure, shortened: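 Multi-cell spheroids combine tumor cells with HUVEC and human MSCs, treated with targeted agents alone or with inavolisib, alpelisib, duvelisib or copanlisib. Concentrations fall in half-log steps from at or near clinical Cmax, or from 10 microM where Cmax is unknown; viability read-out.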

[1] = second compound 0.0316 µM, first compound 0.00316 µM
[2] = second compound 0.0316 µM, first compound 0.01 µM
[3] = second compound 0.0316 µM, first compound 0.0316 µM
[4] = second compound 0.0316 µM, first compound 0.1 µM
[5] = second compound 0.0316 µM, first compound 0.316 µM
[6] = second compound 0.0316 µM, first compound 1 µM
[7] = second compound 0.1 µM, first compound 0.00316 µM
[8] = second compound 0.1 µM, first compound 0.01 µM
[9] = second compound 0.1 µM, first compound 0.0316 µM
[10] = second compound 0.1 µM, first compound 0.1 µM
[11] = second compound 0.1 µM, first compound 0.316 µM
[12] = second compound 0.1 µM, first compound 1 µM
[13] = second compound 0.316 µM, first compound 0.00316 µM
[14] = second compound 0.316 µM, first compound 0.01 µM
[15] = second compound 0.316 µM, first compound 0.0316 µM
[16] = second compound 0.316 µM, first compound 0.1 µM
[17] = second compound 0.316 µM, first compound 0.316 µM
[18] = second compound 0.316 µM, first compound 1 µM
[19] = second compound 1 µM, first compound 0.00316 µM
[20] = second compound 1 µM, first compound 0.01 µM
[21] = second compound 1 µM, first compound 0.0316 µM
[22] = second compound 1 µM, first compound 0.1 µM
[23] = second compound 1 µM, first compound 0.316 µM
[24] = second compound 1 µM, first compound 1 µM
[25] = second compound 3.16 µM, first compound 0.00316 µM
[26] = second compound 3.16 µM, first compound 0.01 µM
[27] = second compound 3.16 µM, first compound 0.0316 µM
[28] = second compound 3.16 µM, first compound 0.1 µM
[29] = second compound 3.16 µM, first compound 0.316 µM
[30] = second compound 3.16 µM, first compound 1 µM
[31] = second compound 10 µM, first compound 0.00316 µM
[32] = second compound 10 µM, first compound 0.01 µM
[33] = second compound 10 µM, first compound 0.0316 µM
[34] = second compound 10 µM, first compound 0.1 µM
[35] = second compound 10 µM, first compound 0.316 µM
[36] = second compound 10 µM, first compound 1 µM
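Also: spheroids exposed to compounds for seven days before read-out.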

SMILES: CCN1CCN(Cc2ccc(Nc3ncc(F)c(-c4cc(F)c5nc(C)n(C(C)C)c5c4)n3)nc2)CC1 + Cc1nc(NC(=O)N2CCCC2C(N)=O)sc1-c1ccnc(C(C)(C)C(F)(F)F)c1
- IC50 (second compound 0.0316 µM): > 1000 nM
- IC50 (second compound 0.1 µM): > 1000 nM
- IC50 (second compound 0.316 µM): > 1000 nM
- IC50 (second compound 1 µM): < 3.16 nM
- IC50 (second compound 3.16 µM): < 3.16 nM
- IC50 (second compound 10 µM): < 3.16 nM
- viability, T/C [1]: 89.8%
- viability, T/C [2]: 93.8%
- viability, T/C [3]: 88%
- viability, T/C [4]: 88.6%
- viability, T/C [5]: 87.1%
- viability, T/C [6]: 75.5%
- viability, T/C [7]: 84.8%
- viability, T/C [8]: 83.4%
- viability, T/C [9]: 83.4%
- viability, T/C [10]: 78.3%
- viability, T/C [11]: 76%
- viability, T/C [12]: 73.4%
- viability, T/C [13]: 66.3%
- viability, T/C [14]: 63.4%
- viability, T/C [15]: 65.9%
- viability, T/C [16]: 55.8%
- viability, T/C [17]: 58.6%
- viability, T/C [18]: 53%
- viability, T/C [19]: 47.6%
- viability, T/C [20]: 46%
- viability, T/C [21]: 43.7%
- viability, T/C [22]: 41.8%
- viability, T/C [23]: 38.3%
- viability, T/C [24]: 36.7%
- viability, T/C [25]: 26.6%
- viability, T/C [26]: 26.3%
- viability, T/C [27]: 24.4%
- viability, T/C [28]: 23.6%
- viability, T/C [29]: 23.3%
- viability, T/C [30]: 22.2%
- viability, T/C [31]: 10.8%
- viability, T/C [32]: 11.2%
- viability, T/C [33]: 10.5%
- viability, T/C [34]: 9.34%
- viability, T/C [35]: 9.59%
- viability, T/C [36]: 11.1%

SMILES: C[C@@H](NC(=O)c1ncnc(N)c1Cl)c1ncc(C(=O)Nc2cc(C(F)(F)F)c(Cl)cn2)s1 + Cc1nc(NC(=O)N2CCCC2C(N)=O)sc1-c1ccnc(C(C)(C)C(F)(F)F)c1
- IC50 (second compound 0.0316 µM): > 10000 nM
- IC50 (second compound 0.1 µM): > 10000 nM
- IC50 (second compound 0.316 µM): > 10000 nM
- IC50 (second compound 1 µM): 192 nM
- IC50 (second compound 3.16 µM): < 31.6 nM
- IC50 (second compound 10 µM): < 31.6 nM
- viability, T/C [3]: 91.4%
- viability, T/C [4]: 92.8%
- viability, T/C [5]: 101%
- viability, T/C [6]: 97.8%
- viability, T/C (second compound 0.0316 µM, first compound 3.16 µM): 114%
- viability, T/C (second compound 0.0316 µM, first compound 10 µM): 92.1%
- viability, T/C [9]: 84.7%
- viability, T/C [10]: 86%
- viability, T/C [11]: 87%
- viability, T/C [12]: 89.4%
- viability, T/C (second compound 0.1 µM, first compound 3.16 µM): 84.1%
- viability, T/C (second compound 0.1 µM, first compound 10 µM): 81.2%
- viability, T/C [15]: 66.5%
- viability, T/C [16]: 69.3%
- viability, T/C [17]: 65.1%
- viability, T/C [18]: 72%
- viability, T/C (second compound 0.316 µM, first compound 3.16 µM): 67%
- viability, T/C (second compound 0.316 µM, first compound 10 µM): 71.3%
- viability, T/C [21]: 53.3%
- viability, T/C [22]: 49.1%
- viability, T/C [23]: 47.2%
- viability, T/C [24]: 49.9%
- viability, T/C (second compound 1 µM, first compound 3.16 µM): 49.5%
- viability, T/C (second compound 1 µM, first compound 10 µM): 45.2%
- viability, T/C [27]: 28.2%
- viability, T/C [28]: 28.7%
- viability, T/C [29]: 27.6%
- viability, T/C [30]: 29%
- viability, T/C (second compound 3.16 µM, first compound 3.16 µM): 31%
- viability, T/C (second compound 3.16 µM, first compound 10 µM): 27.4%
- viability, T/C [33]: 13.3%
- viability, T/C [34]: 14.4%
- viability, T/C [35]: 15%
- viability, T/C [36]: 17%
- viability, T/C (second compound 10 µM, first compound 3.16 µM): 14.9%
- viability, T/C (second compound 10 µM, first compound 10 µM): 11.6%

SMILES: Cn1ncnc1[C@H]1c2n[nH]c(=O)c3cc(F)cc(c23)N[C@@H]1c1ccc(F)cc1 + Cc1nc(NC(=O)N2CCCC2C(N)=O)sc1-c1ccnc(C(C)(C)C(F)(F)F)c1
- IC50 (second compound 0.0316 µM): > 100 nM
- IC50 (second compound 0.1 µM): > 100 nM
- IC50 (second compound 0.316 µM): > 100 nM
- IC50 (second compound 1 µM): < 0.316 nM
- IC50 (second compound 3.16 µM): < 0.316 nM
- IC50 (second compound 10 µM): < 0.316 nM
- viability, T/C (second compound 0.0316 µM, first compound 0.000316 µM): 91.5%
- viability, T/C (second compound 0.0316 µM, first compound 0.001 µM): 94.8%
- viability, T/C [1]: 99.5%
- viability, T/C [2]: 90.9%
- viability, T/C [3]: 94.6%
- viability, T/C [4]: 95.7%
- viability, T/C (second compound 0.1 µM, first compound 0.000316 µM): 86.6%
- viability, T/C (second compound 0.1 µM, first compound 0.001 µM): 79.2%
- viability, T/C [7]: 83.7%
- viability, T/C [8]: 80.9%
- viability, T/C [9]: 83.3%
- viability, T/C [10]: 81.5%
- viability, T/C (second compound 0.316 µM, first compound 0.000316 µM): 63.3%
- viability, T/C (second compound 0.316 µM, first compound 0.001 µM): 63.9%
- viability, T/C [13]: 62.8%
- viability, T/C [14]: 62.5%
- viability, T/C [15]: 66.6%
- viability, T/C [16]: 58.2%
- viability, T/C (second compound 1 µM, first compound 0.000316 µM): 45.1%
- viability, T/C (second compound 1 µM, first compound 0.001 µM): 48.6%
- viability, T/C [19]: 44.9%
- viability, T/C [20]: 43.8%
- viability, T/C [21]: 43.2%
- viability, T/C [22]: 39.6%
- viability, T/C (second compound 3.16 µM, first compound 0.000316 µM): 27%
- viability, T/C (second compound 3.16 µM, first compound 0.001 µM): 26.2%
- viability, T/C [25]: 26.4%
- viability, T/C [26]: 26.3%
- viability, T/C [27]: 26.5%
- viability, T/C [28]: 25.5%
- viability, T/C (second compound 10 µM, first compound 0.000316 µM): 11.4%
- viability, T/C (second compound 10 µM, first compound 0.001 µM): 10.4%
- viability, T/C [31]: 10.1%
- viability, T/C [32]: 11.6%
- viability, T/C [33]: 12.5%
- viability, T/C [34]: 10.9%
